Patent publication US8076338B2, “Kinase modulators and methods of use” (Exelixis, Inc., priority 2004, dated 2011)
Read-outs that look alike come from different tables or passages of the source.

Assays:
AktK = AktK (Homo sapiens, UniProt P31749); assay: Luciferase-coupled chemiluminescence kinase assay (ATP consumption); format: biochemical; details: read-out: AKT-1 IC50
Description: (§1) One measure of inhibition is Ki. […] The Ki for a compound is determined from the IC50 based on three assumptions. First, only one compound molecule binds to the enzyme and there is no cooperativity. […] Third, the enzymatic rate of the enzyme-inhibitor complex is zero. The rate data (i.e. compound concentration) are fitted to the equation: […]
(§2) Luciferase-Coupled Chemiluminescence Assay Protocol
(§3) Kinase activity is measured as the percent of ATP consumed following the kinase reaction using luciferase-luciferin-coupled chemiluminescence. Reactions were conducted in 384-well white, medium binding microtiter plates (Greiner). Kinase reactions were initiated by combining test compounds, ATP and kinase in a 20 uL volume. The reaction mixture was incubated at ambient temperature for 3 hrs. For p70S6K and/or AktK, 2.5-5 nM of the enzyme was pre-incubated with compound in 20 mM Tris pH 7.5, 10 mM MgCl2, 0.03% TX-100, and 1 mM DTT for 30 minutes at room temperature. Following the kinase reaction, a 20 μL aliquot of luciferase-luciferin mix was added and the chemiluminescence signal measured using a Victor^2 plate reader (Perkin Elmer). The luciferase-luciferin mix contained 50 mM HEPES, pH 7.8, 67 mM oxalic acid (pH 7.8), 5 (or 50) mM DTT, 0.4% Triton X-100, 0.25 mg/mL coenzyme A, 63 μM AMP, 28 μg/1 mL luciferin and 40,000 units/mL luciferase. Total ATP consumption was limited to 25-60% and the IC50 values correlate well with those determined by radiometric assays.

p70S6K = p70S6K (Homo sapiens, UniProt P23443); assay: as above; format: biochemical
Chain of p70S6K (P23443 whole entry): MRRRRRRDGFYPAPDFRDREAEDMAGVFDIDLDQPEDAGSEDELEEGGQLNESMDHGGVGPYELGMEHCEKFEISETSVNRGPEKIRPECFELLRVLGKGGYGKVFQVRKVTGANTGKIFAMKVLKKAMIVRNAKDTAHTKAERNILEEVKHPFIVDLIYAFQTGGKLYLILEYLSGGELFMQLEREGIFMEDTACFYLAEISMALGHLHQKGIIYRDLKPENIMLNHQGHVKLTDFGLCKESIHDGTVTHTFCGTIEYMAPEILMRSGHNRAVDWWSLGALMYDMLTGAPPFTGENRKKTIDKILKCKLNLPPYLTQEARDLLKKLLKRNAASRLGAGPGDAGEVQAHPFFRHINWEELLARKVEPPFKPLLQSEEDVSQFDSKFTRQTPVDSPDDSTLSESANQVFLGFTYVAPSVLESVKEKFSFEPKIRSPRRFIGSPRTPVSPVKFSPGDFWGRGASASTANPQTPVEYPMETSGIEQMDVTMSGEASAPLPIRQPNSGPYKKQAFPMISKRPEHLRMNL
Description: as §1, §2, §3

Chain of AktK (P31749 whole entry): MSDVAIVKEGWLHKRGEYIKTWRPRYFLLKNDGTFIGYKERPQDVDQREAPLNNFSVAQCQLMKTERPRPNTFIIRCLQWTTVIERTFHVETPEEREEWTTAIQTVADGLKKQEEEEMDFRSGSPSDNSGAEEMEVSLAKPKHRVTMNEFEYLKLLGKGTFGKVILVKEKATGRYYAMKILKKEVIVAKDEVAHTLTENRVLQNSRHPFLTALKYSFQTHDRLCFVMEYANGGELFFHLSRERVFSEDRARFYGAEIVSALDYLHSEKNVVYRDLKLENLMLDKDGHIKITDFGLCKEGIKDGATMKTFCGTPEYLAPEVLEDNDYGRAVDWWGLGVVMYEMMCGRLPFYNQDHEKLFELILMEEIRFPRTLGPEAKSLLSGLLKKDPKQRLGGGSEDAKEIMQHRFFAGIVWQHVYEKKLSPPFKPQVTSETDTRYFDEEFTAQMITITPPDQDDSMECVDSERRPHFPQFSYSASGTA

Row | IC50 (AktK; Table 1, class symbols per key) [nM] | IC50 (p70S6K; Table 1, class symbols per key) [nM] | IC50 (AktK) [nM] | IC50 (p70S6K) [nM] | Compound
1 | ≥ 10000 | 100 to 1000 | – | – | FC(F)(F)c1ccc(N2CCN(c3ncnc4[nH]nc(Br)c34)CC2)cc1 [Entry 124, 3-bromo-4-{4-[4-(trifluoromethyl)phenyl]piperazin-1-yl}-1H-pyrazolo[3,4-d]pyrimidine]
2 | – | – | 1000 to 10000 | 1000 to 10000 | Cc1ccc(Cl)cc1N1CCN(c2ncnc3[nH]nc(CC4CCNCC4)c23)CC1 [Entry 394, 4-[4-(5-chloro-2-methylphenyl)piperazin-1-yl]-3-(piperidin-4-ylmethyl)-1H-pyrazolo[3,4-d]pyrimidine]
3 | – | – | 1000 to 10000 | < 100 | COC(=O)/C=C/c1n[nH]c2ncnc(N3CCN(c4cc(Cl)ccc4C)CC3)c12 [Entry 372, methyl (2E)-3-{4-[4-(5-chloro-2-methylphenyl)piperazin-1-yl]-1H-pyrazolo[3,4-d]pyrimidin-3-yl}prop-2-enoate]
4 | – | – | – | 1000 to 10000 | CCc1n[nH]c2ncnc(N3CCN(c4cccc(Cl)c4)CC3C(=O)NC)c12 (stereo not shown) [Entry 362, 4-(3-chlorophenyl)-1-(3-ethyl-1H-pyrazolo[3,4-d]pyrimidin-4-yl)-N-methylpiperazine-2-carboxamide]
5 | < 100 | < 100 | – | – | Cc1c(NCCN2CCCC2)cc(C(=O)Nc2ccccc2)cc1N1CCN(c2ncnc3[nH]nc(Br)c23)CC1 [Entry 194, 3-[4-(3-bromo-1H-pyrazolo[3,4-d]pyrimidin-4-yl)piperazin-1-yl]-4-methyl-N-phenyl-5-[(2-pyrrolidin-1-ylethyl)amino]benzamide]
6 | ≥ 10000 | 100 to 1000 | – | – | O=[N+]([O-])c1ccc(N2CCN(c3ncnc4[nH]nc(Br)c34)CC2)cc1 [Entry 97, 3-bromo-4-[4-(4-nitrophenyl)piperazin-1-yl]-1H-pyrazolo[3,4-d]pyrimidine]
7 | < 100 | < 100 | – | – | Cc1c(NCCN2CCCC2)cc(OCC(F)(F)F)cc1N1CCN(c2ncnc3[nH]nc(Br)c23)CC1 [Entry 285, 3-[4-(3-bromo-1H-pyrazolo[3,4-d]pyrimidin-4-yl)piperazin-1-yl]-2-methyl-N-(2-pyrrolidin-1-ylethyl)-5-[(2,2,2-trifluoroethyl)oxy]aniline]
8 | – | – | 1000 to 10000 | 1000 to 10000 | 4-[4-(5-chloro-2-methylphenyl)piperazin-1-yl]-3-(3-pyrrolidin-1-ylpropyl)-1H-pyrazolo[3,4-d]pyrimidine [Entry 400]
9 | 1000 to 10000 | < 100 | – | – | Cc1ccc(C(=O)Nc2ccccc2)cc1N1CCN(c2ncnc3[nH]nc(Br)c23)CC1=O [Entry 199, 3-[4-(3-bromo-1H-pyrazolo[3,4-d]pyrimidin-4-yl)-2-oxopiperazin-1-yl]-4-methyl-N-phenylbenzamide]
10 | 1000 to 10000 | 100 to 1000 | – | – | 2-[4-(3-bromo-1H-pyrazolo[3,4-d]pyrimidin-4-yl)piperazin-1-yl]-N,N-diethylpyrimidin-4-amine [Entry 140]
11 | < 100 | < 100 | – | – | Cc1c(OCCCN2CCCC2)cc(Cl)cc1N1CCN(c2ncnc3[nH]nc(Br)c23)CC1 [Entry 84, 3-bromo-4-(4-{5-chloro-2-methyl-3-[(3-pyrrolidin-1-ylpropyl)oxy]phenyl}piperazin-1-yl)-1H-pyrazolo[3,4-d]pyrimidine]
12 | 1000 to 10000 | < 100 | – | – | Cc1c(OCCN2CCCC2)cc(Cl)cc1N1CCN(c2ncnc3[nH]nc(C(C)C)c23)CC1 [Entry 137, 4-(4-{5-chloro-2-methyl-3-[(2-pyrrolidin-1-ylethyl)oxy]phenyl}piperazin-1-yl)-3-(1-methylethyl)-1H-pyrazolo[3,4-d]pyrimidine]
13 | – | – | ≥ 10000 | 100 to 1000 | CCc1n[nH]c2ncnc(N3CCN(c4cccc(Cl)c4)C(C(=O)O)C3)c12 (stereo not shown) [Entry 352, 1-(3-chlorophenyl)-4-(3-ethyl-1H-pyrazolo[3,4-d]pyrimidin-4-yl)piperazine-2-carboxylic acid]
14 | < 100 | < 100 | – | – | CCN1CCN(CCOc2cc(Cl)cc(N3CCN(c4ncnc5[nH]nc(Br)c45)CC3)c2C)CC1 [Entry 74, 3-bromo-4-[4-(5-chloro-3-{[2-(4-ethylpiperazin-1-yl)ethyl]oxy}-2-methylphenyl)piperazin-1-yl]-1H-pyrazolo[3,4-d]pyrimidine]
15 | – | – | ≥ 10000 | 100 to 1000 | COc1ccccc1N1CCN(c2ncnc3[nH]ccc23)CC1 [Entry 302, 4-{4-[2-(methyloxy)phenyl]piperazin-1-yl}-7H-pyrrolo[2,3-d]pyrimidine]
16 | – | – | ≥ 10000 | 100 to 1000 | FC(F)(F)c1cccc(N2CCN(c3ncnc4[nH]ccc34)CC2)c1 [Entry 305, 4-{4-[3-(trifluoromethyl)phenyl]piperazin-1-yl}-7H-pyrrolo[2,3-d]pyrimidine]
17 | – | – | – | < 100 | CC(C)=CCc1n[nH]c2ncnc(N3CCN(c4cc(Cl)ccc4C)CC3)c12 [Entry 347, 4-[4-(5-chloro-2-methylphenyl)piperazin-1-yl]-3-(3-methylbut-2-en-1-yl)-1H-pyrazolo[3,4-d]pyrimidine]
18 | – | – | – | < 100 | Cc1ccccc1N1CCN(c2ncnc3[nH]nc(C)c23)CC1 [Entry 319, 3-methyl-4-[4-(2-methylphenyl)piperazin-1-yl]-1H-pyrazolo[3,4-d]pyrimidine]
19 | – | – | – | 100 to 1000 | Cc1ccc(Cl)cc1N1CCN(c2ncnc3[nH]nc(-c4ccc(OCC5CCNCC5)cc4)c23)CC1 [Entry 359, 4-[4-(5-chloro-2-methylphenyl)piperazin-1-yl]-3-{4-[(piperidin-4-ylmethyl)oxy]phenyl}-1H-pyrazolo[3,4-d]pyrimidine]

Row | Compound | IC50 (AktK; Table 1, class symbols per key) [nM] | IC50 (p70S6K; Table 1, class symbols per key) [nM] | IC50 (AktK) [nM] | IC50 (p70S6K) [nM]
20 | 3-bromo-4-(4-{4-methyl-2′-[(2-pyrrolidin-1-ylethyl)oxy]biphenyl-3-yl}piperazin-1-yl)-1H-pyrazolo[3,4-d]pyrimidine [Entry 269] | < 100 | < 100 | – | –
21 | FC(F)(F)c1cccc(N2CCN(c3ncnc4[nH]cnc34)CC2)c1 [Entry 314, 6-{4-[3-(trifluoromethyl)phenyl]piperazin-1-yl}-9H-purine] | – | – | ≥ 10000 | 100 to 1000
22 | CCc1n[nH]c2ncnc(N3CCN(c4cc(OCC(C)C)cc(NCCN5CCCC5)c4C)CC3)c12 [Entry 172, 3-[4-(3-ethyl-1H-pyrazolo[3,4-d]pyrimidin-4-yl)piperazin-1-yl]-2-methyl-5-[(2-methyl-propyl)oxy]-N-(2-pyrrolidin-1-ylethyl)aniline] | < 100 | < 100 | – | –
23 | Cc1c(NCCN2CCCC2)cc(COCC(F)(F)F)cc1N1CCN(c2ncnc3[nH]nc(Br)c23)CC1 [Entry 280, 3-[4-(3-bromo-1H-pyrazolo[3,4-d]pyrimidin-4-yl)piperazin-1-yl]-2-methyl-N-(2-pyrrolidin-1-yl-ethyl)-5-{[(2,2,2-trifluoroethyl)oxy]methyl}aniline] | < 100 | < 100 | – | –
24 | Cc1nc(-c2cc(NCCN3CCCC3)c(C)c(N3CCN(c4ncnc5[nH]nc(Br)c45)CC3)c2)no1 [Entry 259, 3-[4-(3-bromo-1H-pyrazolo[3,4-d]pyrimidin-4-yl)piperazin-1-yl]-2-methyl-5-(5-methyl-1,2,4-oxadiazol-3-yl)-N-(2-pyrrolidin-1-ylethyl)aniline] | < 100 | < 100 | – | –
25 | Cc1ccc(N2CCN(c3ncnc4[nH]nc(Br)c34)CC2)cc1NCCN1CCCC1 [Entry 57, 5-[4-(3-bromo-1H-pyrazolo[3,4-d]pyrimidin-4-yl)piperazin-1-yl]-2-methyl-N-(2-pyrrolidin-1-ylethyl)aniline] | 1000 to 10000 | 100 to 1000 | – | –
